Results reported in BigSolDB 2.1.

CCOC(=O)C1(c2ccccc2)CCN(CCC(C#N)(c2ccccc2)c2ccccc2)CC1
solubility (mole fraction)
Conditions | in acetone | in acetonitrile | in ethanol | in isopropanol | in methanol | in water
293.15 K | 0.00426 | 0.00427 | 0.00169 | 0.000258 | 0.00598 | 8.6e-06
298.15 K | 0.00479 | 0.005 | 0.00198 | 0.000442 | 0.00791 | 1.19e-05
303.15 K | 0.00559 | 0.00601 | 0.0023 | 0.000627 | 0.0105 | 1.45e-05
308.15 K | 0.00608 | 0.00727 | 0.0027 | 0.000859 | 0.0123 | 1.96e-05
313.15 K | 0.00664 | 0.00919 | 0.00325 | 0.00108 | 0.0144 | 2.7e-05
318.15 K | 0.00776 | 0.0124 | 0.00432 | 0.00156 | 0.0184 | 3.28e-05
